What was measured:
Format in all cases: cell-based, Arabidopsis thaliana
[1] = test system: stomata (guard cells) in epidermal peels; assay: Stomatal aperture closure studies, epidermal peels in the light
Procedure: (§1) Stomatal Aperture Studies: Arabidopsis thaliana ecotypes Columbia (Col-0) and Wassilewskija (WS) were used as wild types in this study. Col-0, nia1nia2, atrbohD/F, R2-4A and WS plants were all grown on autoclaved Metro-Mix 200 soil at 22° C. under continuous light. The mutant seeds nia1nia2 nia2-5; CS 2356; Col-0 background) were obtained from Dr. N. M. Crawford (University of California at San Diego) and the mutant seeds atrbohD/F (Col-0 background) were obtained from Dr. J. M. Kwak (University of Maryland). The RNAi mutant apyrase line (R2-4A) is in WS background, so WS ecotype was used as the control wild type for these studies. Leaves from 2 to 3 week old Col-0 plants, or R2-4A and WS plants treated with 4 μM estradiol for 1 week after development of mature basal leaves were used for peel and whole leaf studies. Plants were placed in the dark and watered 24 h before an study. For opening studies, plants were used immediately after 24 h dark treatment and all treatments were done in the dark except for the light treated leaves or peels, thus the control stomata are dark controls. For closure studies, plants were placed in the light 3 h before an study to induce stomatal opening and all treatments were done in the light, thus the control stomata are light controls. For peel studies, epidermal peels were made from the underside of the leaf and treatments were applied to the peels for 1 h. For whole leaf studies, leaves were removed and treatments were applied for 2 h. For each treatment, about 3 or 4 peels collected from different leaves or 3 or 4 different leaves of at least two different plants were floated with the abaxial side up in petri dishes on 3 mL of Arabidopsis leaf buffer consisting of 10 mM KCl, 25 mM MES pH 6.15 (Melotto et al., 2006) and the chemical being tested. For whole leaf studies peels were collected after the treatment.
(§2) For studies testing the effects of ATPγS, ADPγS, AMPS, RB2, and PPADS (Sigma, St. Louis, Mo., USA) 20 mM stocks were made by dissolving the compounds in de-ionized water. For studies testing the effects of apyrase inhibitors, 7.5 mg/mL of NGXT191 and of inhibitor #13 (Windsor et al., 2002) was dissolved in dimethyl sulfoxide (DMSO) and then applied at a dilution of […] for a final concentration of 0.1% DMSO. ABA (Sigma, St. Louis, Mo., USA) was dissolved in ethanol in 10 mM stocks and then applied at a dilution of 1:1000. The stocks were stored at −20° C. while not in use. The production of the anti-AtAPY1 antibodies used is described by Steinebrunner et al. (2003). The crude immune and pre-immune sera were purified using protein A-Sepharose following the protocol described by Martin (1982) with the slight modification that the buffers used were azide-free. The protein-A purified sera were both used at a 1:1000 dilution in leaf stomatal aperture studies. The concentration of the immune and pre-immune sera, determined by Bradford assay (Bio-Rad), was 10.2 μg/mL and 7.7 μg/mL, respectively.
(§3) After treatment, photos of stomata were taken using a light microscope at 20×. Stomatal aperture width was measured using the image processing software ImageJ. Typically, photos were taken of 70 to 90 stomata per treatment of which only 50 stomata were measured for each treatment. For each treatment the ratio of closed stomata (width of 0) to open stomata was determined for all stomata imaged and this ratio was maintained in the 50 stomata that were measured for each treatment. Data shown uses apertures determined as width/length, however data in all studies also obtained as width only and generally width/length and width only data are in agreement with each other. Statistical significance of the measurements for the treatments was determined using the Student's t test in Microsoft Excel.

[2] = test system: stomata (guard cells) in whole leaves; assay: Stomatal aperture closure studies, whole leaves in the light; conditions: for effect on ABA-induced stomatal closure / effect on ATPγS-induced stomatal closure: co-incubation
Procedure: as §1, §2, §3

[3] = test system: guard cells of x-luc1 and x-luc9 ecto-luciferase lines; assay: Ecto-luciferase luminescence imaging of extracellular ATP in epidermal peels
Text: Ecto-luciferase Construct and Plant Transformation: The nucleotide sequence for the 24 amino acid, cleavable signal peptide from the Brassica pollen coat protein, S-locus cysteine-rich protein (SCR13; AF195626) was used to target luciferase for secretion (Schopfer et al., 1999). The signal peptide was incorporated at the N-terminus of the luciferase gene by PCR and the SCR13 signal peptide modified luciferase PCR product was then ligated into the binary vector pLBJ21. This construct was then transformed into Agrobacterium tumefaciens strain GV3101 (pMP90) and then transformed into Arabidopsis plants (Col-0) using the floral dipping method (Clough and Bent, 1998). Transgenic plants were selected by planting on solidified Murashige and Skoog (MS) medium (4.3 g/L Murashige and Skoog salts (Sigma), 0.5% (w/v) MES, and 1.0% (w/v) agar, raised to pH 5.7 with 5 M KOH) containing 50 μg/mL kanamycin. Segregation of T3 generation on kanamycin plates was analysed in order to obtain homozygous lines. Plants showing kanamycin resistance were checked for luciferase activity by growing transgenic plants in MS medium for 10 days and then transferring the whole seedlings into test tubes. Luminescence measurements were performed by placing the test tubes in the light-tight housing of the luminometer reader (Dynatech). Experimental solutions with luciferin substrate with and without 1 mM ATP were injected by an automatic injector, and after 3 seconds counting started at 0.2 second time intervals.
Imaging of Luminescence in Ecto-luciferase Plants: Ecto-luciferase seeds were surface-sterilized, stratified in the dark in 4° C. for at least three days and then planted directly on a cellophane membrane placed upon solidified MS with 1.0% (w/v) agar. Planted plates were placed upright in a culture chamber and grown at 23° C. under 24-h fluorescent light for 7 days. Plates were then reoriented so that the solidified MS medium was at the bottom of the plate and the seedling was able to grow up into the empty space of the petri dish. Seedlings were then allowed to mature for up to 4 weeks under identical temperature and light settings. For “dark” studies petri dishes of 3-4 week old plants were placed in a dark chamber for 24 hours prior to use in the studies.
Mature basal leaves were excised from x-luc1 and x-luc9 plants 3-4 weeks old. Peels were taken and then immediately floated with the abaxial side up in 40 μL, of Arabidopsis leaf buffer on a microscope slide and the chemical being tested in either light or dark conditions depending on the experimental setup. The placing of the peels within their respective solution was considered time zero. Peels were treated for a minimum of 5 minutes before luciferin and flash buffer were added to the solution. […] Luminescence was integrated over 120 seconds, High Gain, Read Out set to slow, using 4×4 pixel binning with Cosmic Suppression on, Background Correction off, and Flatfield Correction off with the filter set to Photo.
All luminescence analysis was conducted using the indiGO Analysis Software (version 2.0.0.26). All images consisted of a photographic image in grayscale with an overlaid luminescence image in pseudo color. […]

[4] = test system: stomata (guard cells) in epidermal peels; assay: Stomatal aperture opening studies, epidermal peels in the dark
Procedure: as §1, §2, §3

H2O2 in guard cells = assay: Detection and quantification of H2O2 (H2DCFDA fluorescence); conditions: co-incubation (data not shown)
Procedure: (§4) Detection and Quantification of H2O2 and NO: Col-0 plants were grown on soil for 2 to 4 weeks under continuous light at 21° C. Plants were placed in the dark for 24 h to ensure closure and then transferred to the light for 1 h. After 1 h in the light, mature basal leaves were excised and blended in a Waring blender on the low setting for approximately 10 s to isolate epidermal tissues, and the tissues were placed in 3 mL of 30 mM KCl, 10 mM Mes-KOH, pH 6.16 buffer in light for 2 h (Pei et al., 2000; Murata et al., 2001). DAF-2 DA and H2DCFDA were dissolved in DMSO to produce 5 mM and 10 mM stock solutions, respectively, and these were stored at −20° C. in 30 μL, aliquots. Fifty μM H2DCFDA or 15 μM DAF-2 DA was added to the medium in the dark, and after 30 min, 10 μM ABA, 200 μM ATPγS, or buffer (ATP control) was also added to the medium in the dark for 30 min. Peels were then rinsed by decanting the treatment solution and adding 3 mL fresh leaf buffer to the peels. Peels were rinsed twice as described. A peel from each of the three treatments (ABA, ATPγS and buffer) were placed on the same microscope slide and observed sequentially. A second study was staggered 30 to 45 min after the first by loading the H2DCFDA or DAF-2 DA dye to new peels 30 to 45 min after the first round of dye was added. Confocal laser scanning microscopy (CLSM) was performed with a Leica SP2 AOBS confocal microscope (Leica Microsystems, Bannockburn, Ill., USA). Laser power was set at 15%, with an excitation of 488 nm and an emission of 525 nm. A series of 0.5 μm optical sections with average intensity projection along the z axis were collected and made into one 2D image with greater focal depth. All images were obtained with the same software scanning settings including detector gain and laser intensity settings.

[5] = test system: stomata (guard cells) in whole leaves; assay: Stomatal aperture opening studies, whole leaves in the dark
Procedure: as §1
as §2, with “The crude immune and pre-immune sera were purified using protein A-Sepharose following the protocol described by Martin (1982) with the slight modification that the buffers used were azide-free. The protein-A purified sera were both used at a 1:1000 dilution in leaf stomatal aperture studies.” left out
as §3

NO in guard cells = assay: Detection and quantification of NO (DAF-2 DA fluorescence); conditions: co-incubation (data not shown)
Procedure: as §4

[6] = co-incubation, epidermal peel studies (data not shown)
[7] = 30 μM, whole leaf studies (not shown)
[8] = co-incubation, 30 μM, leaves (data not shown)

Structure (SMILES): Nc1ncnc2c1ncn2[C@@H]1O[C@H](COP(=O)(O)OP(O)(O)=S)[C@@H](O)[C@H]1O [ADPβS]
- threshold for nucleotide-induced stomatal closure ([1]; epidermal peel studies, light): same threshold
- threshold for nucleotide-induced stomatal closure ([2]; whole leaf studies, compared with peel studies (150 to 200 μM; not shown)): the same as found in the peel studies
- ecto-luciferase luminescence of stomata, average ([3]; 200 μM, 5 min, open stomata (data not shown)): 2.75 cps

Structure (SMILES): Nc1ncnc2c1ncn2[C@@H]1O[C@H](COP(O)(O)=S)[C@@H](O)[C@H]1O [AMPS]
- effect on stomatal aperture ([1]; 200 μM, dose-response tests, summary statement): neither 15 μM nor 200 μM AMPS has any effect
- effect on stomatal aperture ([1]; 250 μM, epidermal peels, light, 1 h): no effect on stomatal aperture
- effect on stomatal aperture ([4]; 15 μM, darkness, 1 h): no effect on stomatal aperture

Structure (SMILES): Nc1ncnc2c1ncn2[C@@H]1O[C@H](COP(=O)(O)OP(=O)(O)OP(=O)(O)O)[C@@H](O)[C@H]1O [ATP]
- ecto-luciferase luminescence, average ([3]; 1 mM, 5 min or longer, x-luc1 and x-luc9 lines, centered around guard cells): 4.75 counts per second (cps)
- ecto-luciferase luminescence of pavement cells, average ([3]; 1 mM, pavement cells of the epidermis): 1.35 cps

Structure (SMILES): CC(=O)N[C@@H](CS)C(=O)O [NAC, N-acetyl-L-cysteine]
- effect on ABA- and ATPγS-induced H2DCFDA fluorescence (H2O2 in guard cells): blocked

Structure (SMILES): Cc1cccc(NS(=O)(=O)c2ccc(-c3ccccc3)cc2)c1 [NGXT 191, N-(3-methylphenyl)-4-biphenylsulfonamide]
- effect on stomatal aperture ([1]; 7.5 μg/mL, epidermal peels, light, 1 h): induced stomatal closure

Structure (SMILES): Cc1nc(N=Nc2ccc(S(=O)(=O)O)cc2S(=O)(=O)O)c(COP(=O)(O)O)c(C=O)c1O [PPADS, pyridoxalphosphate-6-azo-phenyl-2′,4′-disulphonic acid]
- effect on stomatal aperture ([1]; 100 μM alone, epidermal peels, light): no effect by itself
- effect on NGXT 191-induced stomatal closure ([1]; co-incubation, 100 μM, with 7.5 μg/mL NGXT 191, epidermal peels): blocked
- effect on ABA-induced stomatal closure [1, 6]: partially block
- effect on ATPγS-induced stomatal closure [1, 6]: block
- effect on stomatal aperture ([2]; 100 μM alone, leaves, light): no effect alone
- effect on ABA-induced stomatal closure ([2]; 100 μM, with 10 μM ABA, leaves): partially blocked
- effect on ATPγS-induced stomatal closure ([2]; 100 μM, with 200 μM ATPγS, leaves): blocked
- effect on stomatal aperture ([4]; 100 μM alone, opening studies): no effect alone
- effect on light-induced stomatal opening ([4]; co-incubation, 100 μM): partially blocked
- effect on ATPγS-induced stomatal opening ([4]; co-incubation, 100 μM, with 15 μM ATPγS): blocked
- effects in opening studies compared with epidermal peels ([5]; whole leaves (data not shown), alone, on ATPγS-induced and on light-induced opening): the same effects

Structure (SMILES): Nc1c(S(=O)(=O)O)cc(Nc2ccc(Nc3nc(Cl)nc(Nc4cccc(S(=O)(=O)O)c4)n3)c(S(=O)(=O)O)c2)c2c1C(=O)c1ccccc1C2=O [RB2, reactive blue 2]
- effect on stomatal aperture ([2]; 30 μM alone, closure studies, leaves): no effect alone
- effect on ABA-induced stomatal closure [2, 7]: partially block
- effect on ATPγS-induced stomatal closure [2, 7]: block
- effect on stomatal aperture ([5]; 30 μM alone, opening studies, leaves): no effect by itself
- effect on ATPγS-induced stomatal opening [5, 8]: block
- effect on light-induced stomatal opening [5, 8]: partially block

Structure (SMILES): O=C(Nc1cccc([N+](=O)[O-])c1)c1cccc(S(=O)(=O)Nc2ccc(Br)cc2)c1 [apyrase inhibitor #13, 3-{[(4-bromophenyl)amino]sulfonyl}-N-(3-nitrophenyl)benzamide]
- effect on stomatal aperture ([2]; 7.5 μg/mL, whole leaves (data not shown)): caused stomatal closure

Structure (SMILES): CC1(C)N([O])C(c2ccc(C(=O)O)cc2)=[N+]([O-])C1(C)C [cPTIO]
- effect on ABA- and ATPγS-induced DAF-2 DA fluorescence (NO in guard cells): blocked

Source: US20140123342A1, “Regulation of Stomatal Apertures by Apyrases and Extracellular Nucleotides” (BOARD OF REGENTS, THE UNIVERSITY OF TEXAS SYSTEM, priority 2011, published 2014)
